The conditions of data set [1]: cited from earlier work.
The test system of a further data set is CYP2C19. As to conditions: compared to ilaprazole and pantoprazole; cited from earlier work.
Data set [2] deals with F. solani isolate. The data set is described as follows: Antifungal susceptibility testing. In kind it is cell-based, F. solani complex. As to conditions: Fusarium solani.
In another data set the test system is Fusarium spp. As to conditions: cited from earlier work.
Data set [3] concerns F. solani isolate. The experiment in a line: In vitro synergy testing of the voriconazole and micafungin combination. In kind it is cell-based, F. solani complex. As to conditions: tested at University of Texas Health Science Center in San Antonio.
The conditions of data set [4]: cited from earlier work. This is another data set of the same source.

Here are results for nine compounds from publication PMC10198811 (The Pediatric infectious disease journal, 2023).

Structures are written as SMILES. In brackets after ≈: the same amount, converted by molar mass. Read-outs that look alike come from different tables or passages of the source. *1 amine or outer side, *2 acyl side, *3 side chain or, on linkers, in order; H or OH if unused. Where a SMILES comes first, the peptide text is derived from it. Bridges are numbered along the chain shown (N, C = ends). [ ]: non-standard residue; d: D form. The star is where a group is joined. hTyr(3S-OH,4S-OH,3'-OSO3H) = N[C@H](C(=O)O)[C@H](O)[C@@H](O)c1ccc(O)c(OS(=O)(=O)O)c1; Orn(4R-OH,5R-OH) = O=C([C@H](C[C@@H](O)[C@@H](O)N[*:3])N[*:1])[*:2]; Pro(3S-OH,4S-Me) = C[C@H]1CN[C@H](C(=O)O)[C@H]1O; X1 = CCCCCOc1ccc(-c2cc(-c3ccc(C(=O)*)cc3)no2)cc1; Gln(3R-OH) = NC(=O)C[C@@H](O)[C@H](N)C(=O)O; Hyp = O=C(O)[C@@H]1C[C@@H](O)CN1

Regarding `COc1ccc2[nH]c([S+]([O-])Cc3ncc(C)c(OC)c3C)nc2c1` (stereo not shown) [omeprazole], in data set [1] (voriconazole co-administration), the “Omeprazole AUC with voriconazole compared to absence of co-administration” value is 4 times higher and the “Omeprazole Cmax with voriconazole compared to absence of co-administration” value was 2 times higher. In addition, in the data set with CYP2C19, the CYP2C19 inhibitory effect entry is reported as “more potent inhibitory effects”. Regarding `C[C@@H](c1ncncc1F)[C@](O)(Cn1cncn1)c1ccc(F)cc1F` [voriconazole], the “Repeat imaging of metastatic sites of proven or suspected infection” value in the data set on F. solani complex (6 months after initiation of voriconazole therapy) is reported as “significant interval improvement or resolution of all metastatic sites”. Besides, the “Voriconazole-related toxicity (e.g., hepatotoxicity, neurotoxicity)” value in the data set with F. solani complex (~10.7 mg/kg/dose PO q8h for several months, troughs 4 to 6 mcg/mL) is “without any evidence of voriconazole-related toxicity”. Moreover, the “Increase of voriconazole AUC” value is recorded as 23% in data set [1] (healthy subjects, with cimetidine 400 mg PO q12h) and 40% in data set [1] (healthy volunteers, with omeprazole 40 mg PO q24h). Also, the MIC (as a rule, the least concentration at which growth counts as inhibited) against F. solani isolate [2] was determined as 4 µg/mL (≈ 11.5 µM). Besides, in the data set on Fusarium spp., the MIC50 (as a rule, the lowest concentration that inhibits either 50% of growth or 50% of the strains tested, depending on the study) is 8 µg/mL (≈ 22.9 µM).

`CC[C@@H]([C@H](C)O)n1ncn(-c2ccc(N3CCN(c4ccc(OC[C@@H]5CO[C@@](Cn6cncn6)(c6ccc(F)cc6F)C5)cc4)CC3)cc2)c1=O` [posaconazole]: the MIC against F. solani isolate [2] was over 16 µg/mL. In the case of `CCCCCOc1ccc(-c2cc(-c3ccc(C(=O)N[C@H]4C[C@@H](O)[C@@H](O)NC(=O)[C@@H]5[C@@H](O)[C@@H](C)CN5C(=O)[C@H]([C@H](O)CC(N)=O)NC(=O)[C@H]([C@H](O)[C@@H](O)c5ccc(O)c(OS(=O)(=O)O)c5)NC(=O)[C@@H]5C[C@@H](O)CN5C(=O)[C@H]([C@@H](C)O)NC4=O)cc3)no2)cc1` [micafungin] (X1-[Orn(4R-OH,5R-OH)]T[Hyp][hTyr(3S-OH,4S-OH,3'-OSO3H)][Gln(3R-OH)][Pro(3S-OH,4S-Me)]; lactam 1-C), in the data set on F. solani isolate [3], the Synergy of combination entry is listed as “did not reveal synergy”.

As for `C[C@@H]1[C@H](O)[C@@H](C)/C=C/C=C/C=C/C=C/C=C/C=C/C=C/[C@H](O[C@@H]2O[C@H](C)[C@@H](O)[C@H](N)[C@@H]2O)C[C@@H]2O[C@](O)(C[C@@H](O)C[C@@H](O)[C@H](O)CC[C@@H](O)C[C@@H](O)CC(=O)O[C@H]1C)C[C@H](O)[C@H]2C(=O)O` [amphotericin B], in the data set on F. solani isolate [2], the MIC was 8 µg/mL (≈ 8.66 µM). Regarding `Cc1c(OCC(F)(F)F)ccnc1C[S+]([O-])c1nc2ccccc2[nH]1` (stereo not shown) [lansoprazole], the CYP2C19 inhibitory effect result in the data set on CYP2C19 is recorded as “more potent inhibitory effects”. Turning to `COc1ccc2nc([S@@+]([O-])Cc3ncc(C)c(OC)c3C)[nH]c2c1` [esomeprazole], in the data set with CYP2C19, the CYP2C19 inhibitory effect entry was “more potent inhibitory effects”. Consider `CN/C(=N/CCSCc1nc[nH]c1C)NC#N` [cimetidine], for which, in data set [4], the Toxicity entry was “central nervous system effects and anti-androgenic side effects”.

In turn, `C[C@@H](c1nc(-c2ccc(C#N)cc2)cs1)[C@](O)(Cn1cncn1)c1cc(F)ccc1F` [isavuconazole] showed an MIC against F. solani isolate [2] of over 16 µg/mL.
